Article PMC3069040, “A Conserved Cysteine Motif Is Critical for Rice Ceramide Kinase Activity and Function” (PLoS ONE, 2011)

Tests used:
OsCERK = target: T1, OsCERK (Oryza sativa, UniProt C0LT23); assay: TLC with NBD fluorescence scan, inhibition of C6-NBD-ceramide phosphorylation; type: biochemical
T1 construct: gene CERK; N-terminus from primer MEGGGEAL
T1 sequence (C0LT23 1-607): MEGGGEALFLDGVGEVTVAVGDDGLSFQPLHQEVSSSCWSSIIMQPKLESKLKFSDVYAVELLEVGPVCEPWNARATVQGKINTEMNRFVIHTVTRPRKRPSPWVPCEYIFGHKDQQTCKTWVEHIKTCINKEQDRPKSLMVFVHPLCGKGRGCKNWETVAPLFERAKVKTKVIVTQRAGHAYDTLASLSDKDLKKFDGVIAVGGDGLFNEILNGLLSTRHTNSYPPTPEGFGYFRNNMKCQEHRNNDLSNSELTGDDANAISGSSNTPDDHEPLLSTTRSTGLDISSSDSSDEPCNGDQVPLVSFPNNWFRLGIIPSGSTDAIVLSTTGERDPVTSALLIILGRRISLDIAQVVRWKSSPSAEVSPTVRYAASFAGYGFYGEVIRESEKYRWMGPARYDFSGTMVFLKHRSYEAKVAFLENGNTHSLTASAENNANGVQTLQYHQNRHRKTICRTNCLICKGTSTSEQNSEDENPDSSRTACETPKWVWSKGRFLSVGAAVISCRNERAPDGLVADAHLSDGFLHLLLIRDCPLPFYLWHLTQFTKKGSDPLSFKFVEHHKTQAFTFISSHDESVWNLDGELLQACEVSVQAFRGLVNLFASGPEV

rACD5 = target: T2, rACD5 (Arabidopsis thaliana, UniProt Q6USK2); assay: TLC with NBD fluorescence scan, turnover; type: biochemical; conditions: ATP 1 mM, 15 mM MgCl2, mixed micelles, 40 °C, 30 min; labelled compound
T2 construct: gene CERK; coding region in pET28b, His-tagged, E. coli BL21 (DE3), Ni-NTA; N-terminus from primer MEEGRDDE
T2 sequence (Q6USK2 1-608): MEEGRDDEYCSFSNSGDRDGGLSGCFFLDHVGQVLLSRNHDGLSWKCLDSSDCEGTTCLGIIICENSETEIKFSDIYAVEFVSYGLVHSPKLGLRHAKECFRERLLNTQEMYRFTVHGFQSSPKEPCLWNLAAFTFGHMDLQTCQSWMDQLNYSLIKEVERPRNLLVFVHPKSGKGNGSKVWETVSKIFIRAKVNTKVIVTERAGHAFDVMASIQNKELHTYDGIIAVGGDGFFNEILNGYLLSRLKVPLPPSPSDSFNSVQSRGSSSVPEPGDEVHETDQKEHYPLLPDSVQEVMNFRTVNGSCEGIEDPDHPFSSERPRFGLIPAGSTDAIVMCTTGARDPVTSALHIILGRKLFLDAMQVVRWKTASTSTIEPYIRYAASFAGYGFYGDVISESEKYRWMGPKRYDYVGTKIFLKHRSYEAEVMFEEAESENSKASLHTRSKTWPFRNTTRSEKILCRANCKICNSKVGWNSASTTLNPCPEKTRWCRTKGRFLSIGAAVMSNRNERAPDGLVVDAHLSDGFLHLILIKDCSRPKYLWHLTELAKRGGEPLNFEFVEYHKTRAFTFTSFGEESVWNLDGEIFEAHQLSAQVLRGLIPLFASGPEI

[1] = substrate: CCCCCCCCCCCCC/C=C/[C@@H](O)[C@H](CO)NC(=O)CCCCCNc1ccc([N+](=O)[O-])c2nonc12; assay: TLC with NBD fluorescence scan, Lineweaver-Burk; type: biochemical, Oryza sativa; conditions: ATP 1 mM, 15 mM MgCl2, Triton X-100/cardiolipin mixed micelles, Hepes pH 7.4, 40 °C, labelled compound
[2] = substrate: Nc1ncnc2c1ncn2[C@@H]1O[C@H](COP(=O)(O)OP(=O)(O)OP(=O)(O)O)[C@@H](O)[C@H]1O; assay: TLC with NBD fluorescence scan, Lineweaver-Burk; type: biochemical, Oryza sativa; conditions: co-substrate C6-NBD-ceramide, 15 mM MgCl2, mixed micelles, Hepes pH 7.4, 40 °C, Discussion b40 prints 36.35 µM

Molecule: O=C(Nc1nc2ccc(NC(=O)C34CC5CC(CC(C5)C3)C4)cc2s1)c1ccccc1 [ceramide kinase inhibitor K1]
- % inhibition at 200 μM (OsCERK; C6-NBD-ceramide, ATP, 15 mM MgCl2, mixed micelles, 40 °C, 0.5% ethanol or methanol as solvent): > 90%

Molecule: CCCCCCCCCCCCC/C=C/[C@@H](O)[C@H](CO)N(C)C [N,N-dimethylsphingosine]
- inhibition at 100 µM (OsCERK): ~70%

Molecule: CCCCCCCCCCCCC/C=C/[C@@H](O)[C@H](CO)NC(=O)CCCCCNc1ccc([N+](=O)[O-])c2nonc12 [D-erythro-C6-NBD-ceramide]
- TLC with NBD fluorescence scan, turnover (rACD5): phosphorylating C6-NBD-ceramide to give C6-NBD-ceramide-1-phosphate, as did recombinant OsCERK and rACD5

B1: OsCERK (Oryza sativa Japonica Group) (protein)
chain: T1 sequence (C0LT23 1-607)
notes: N-terminus from primer MEGGGEAL
- Km [1]: 4.1 µM
- Km [2]: 35.36 µM
